Test results reported in patent US9828338B2, “Carbamate derivatives of lactam based N-acylethanolamine acid amidase (NAAA) inhibitors” (The Regents of the University of California, priority 2013, dated 2017).
“Also recorded” adds a separate entry of the source.

Tests used:
mice [1] = experiment: Carrageenan-induced inflammation (paw edema, heat hyperalgesia); type: in vivo; conditions: compound 5 3-30 mg/kg p.o.
mice [2] = experiment: Carrageenan-induced lung inflammation; type: in vivo; conditions: carrageenan 2%
Description: The chest was carefully opened and the pleural cavity was rinsed with 1 mL of saline solution containing heparin (5 U/mL). The exudate and washing solution were removed by aspiration and the total volume of the fluid was measured. Any exudate that was contaminated with blood was discarded. The amount of exudate was calculated by subtracting the volume of washing fluid injected from the total volume recovered.

mice [3] = experiment: LPS-induced inflammation (lung); conditions: for neutrophil migration/infiltration into lung tissue: 6 h and 24 h
Description: Mice were anesthetized with ketamine and xylazine (100 and 10 mg/kg, respectively), and were subjected to intranasal instillation of LPS (1 μg/μL) or vehicle (saline 0.9%); the volume used was 1 μL/g body weight. In order to avoid drawing, the weight of each animal was divided by three; therefore each mouse received the respective volume of LPS or vehicle. Ex: animal 1 (24 g) received 3 times an intranasal instillation of 8 μL of LPS solution or vehicle.
The bronchoalveolar lavage and lung samples were collected 6 h or 24 h after the induction of inflammation.

Rat AC (r-AC) = target: T1, Rat AC (r-AC) (Rattus norvegicus, UniProt Q6P7S1); experiment: Rat AC (r-AC) assay; type: biochemical
T1 construct: V5 (C); His (C); made in house; host or cells: HEK293 cells transfected with pEF6-rAC-V5/His, G418 selected; soluble lysosomal fraction
T1 sequence (Q6P7S1 21-394): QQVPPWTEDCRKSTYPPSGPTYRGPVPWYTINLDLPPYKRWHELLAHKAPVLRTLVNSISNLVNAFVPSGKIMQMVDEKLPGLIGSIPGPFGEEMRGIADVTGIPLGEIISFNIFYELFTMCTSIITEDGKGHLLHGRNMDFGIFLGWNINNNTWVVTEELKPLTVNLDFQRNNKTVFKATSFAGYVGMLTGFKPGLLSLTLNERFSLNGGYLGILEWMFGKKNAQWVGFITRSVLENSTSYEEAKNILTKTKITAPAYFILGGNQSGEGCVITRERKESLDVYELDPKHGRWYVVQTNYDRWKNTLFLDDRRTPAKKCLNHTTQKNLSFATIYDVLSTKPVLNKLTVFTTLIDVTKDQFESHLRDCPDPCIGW
Description: The selectivity of selected compounds versus Acid Ceramidase (AC) was determined.
Rat AC (r-AC) was cloned from a brain cDNA library using primers based on the sequence obtained from the National Center for Biotechnology Information (NCBI) database: 5′rAC (5′-[…]-3′) (SEQ ID NO:1) and 3′rAC (5′-[…]-3′) (SEQ ID NO:2). The PCR (High Fidelity PCR Master, Roche) product was subcloned into a pEF6-V5/His vector (Invitrogen) to construct a mammalian expression vector encoding V5/His-tagged rat AC. HEK293 cells were transfected with pEF6-rAC-V5/His using Super-Fect reagent (Qiagen) and screened with G418 (0.3 mg/mL). Cells were suspended in 20 mM Tris HCl (pH 7.5) containing 0.32M sucrose, sonicated and centrifuged at 800×g for 15 minutes at 4° C. The supernatants were centrifuged again at 12,000×g for 30 minutes at 4° C. The pellets were suspended in phosphate-buffered saline (PBS) and subjected to 2 freeze-thaw cycles at −80° C. The suspensions were centrifuged at 105,000×g for 1 hour at 4° C. The supernatants containing recombinant AC were kept at −80° C. until use. Protein concentration was measured using the bicinchoninic acid (BCA) assay (Pierce). Recombinant rat AC (50 μg) was preincubated with inhibitors (final DMSO concentration 1%) in assay buffer (100 mM sodium phosphate, 0.1% Nonidet P-40, 150 mM NaCl, 3 mM DTT, 100 mM sodium citrate, pH 4.5) for 30 minutes at 37° C. Reactions were started by the addition of 100 μM N-lauroyl ceramide (Nu-Chek Prep, Elysian, Minn.) and carried on for 30 minutes at 37° C. Reactions were stopped by addition of a mixture of chloroform/methanol (2:1, vol/vol) containing 1 nmol of heptadecanoic acid (HDA; NuChek Prep). The organic phases were collected, dried under N2, and analyzed by LC-MS in the negative-ion mode using […] (HDA) as internal standard (m/z=199 for lauric acid, m/z=269 for HDA). […]. The column temperature was 50° C. Electrospray ionization (ESI) was in the negative mode, capillary voltage as 4 kV, and fragmentor voltage was 100 V. N2 was used as drying gas at a flow rate of 13 L/min and a temperature of 350° C. Nebulizer pressure was set at 60 psi. We monitored [M-H]− in the selected-ion monitoring (SIM) mode using HDA as internal standard. Calibration curves were generated using commercial lauric acid (Nu-Chek Prep; m/z=199).

r-NAAA = target: T2, r-NAAA (Rattus norvegicus, UniProt Q5KTC7); experiment: UPLC/MS r-NAAA assay; type: biochemical
T2 construct: Lysosomal NAAA protein preparation was obtained by homogenizing male Sprague-Dawley rat lungs; tissue Charles River (animals); host or cells: male Sprague-Dawley rat lung, soluble lysosomal fraction
T2 sequence (Q5KTC7 34-362): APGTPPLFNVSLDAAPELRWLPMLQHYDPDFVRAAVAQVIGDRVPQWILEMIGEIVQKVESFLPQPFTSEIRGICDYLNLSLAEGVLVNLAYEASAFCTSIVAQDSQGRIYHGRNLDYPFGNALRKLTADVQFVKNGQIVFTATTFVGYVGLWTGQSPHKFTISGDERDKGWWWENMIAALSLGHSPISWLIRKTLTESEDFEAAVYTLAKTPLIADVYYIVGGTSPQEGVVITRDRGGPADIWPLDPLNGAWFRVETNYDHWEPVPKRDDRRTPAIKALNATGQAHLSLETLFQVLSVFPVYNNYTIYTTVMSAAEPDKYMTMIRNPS

human NAAA = target: T3, human NAAA (Homo sapiens, UniProt Q02083); experiment: Fluorogenic h-NAAA assay; type: biochemical
T3 construct: made in house; host or cells: HEK293 cells, stably transfected; soluble lysosomal fraction used as enzyme source
T3 sequence (Q02083 29-359): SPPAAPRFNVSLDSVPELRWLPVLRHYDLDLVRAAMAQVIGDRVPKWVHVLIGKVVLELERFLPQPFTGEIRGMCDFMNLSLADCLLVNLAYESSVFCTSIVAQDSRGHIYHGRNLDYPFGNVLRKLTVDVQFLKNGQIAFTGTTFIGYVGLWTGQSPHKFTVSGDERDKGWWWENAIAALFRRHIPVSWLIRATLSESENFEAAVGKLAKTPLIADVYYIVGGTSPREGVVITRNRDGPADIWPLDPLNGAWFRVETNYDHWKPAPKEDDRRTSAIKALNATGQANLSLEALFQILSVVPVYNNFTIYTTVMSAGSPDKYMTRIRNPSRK
Description: Hek293 cells stably transfected with the human NAAA coding sequence cloned from a human spleen cDNA library were used as enzyme source. Recombinant HEK-hNAAA pellets were resuspended in homogenizing buffer, and sonicated. Samples were centrifuged at 800×g for 15 min at 4° C. and the resultant supernatants were then ultracentrifuged at 12,000×g for 30 min at 4° C. The pellets were resuspended in PBS pH 7.4 on ice and subjected to a freeze/thaw cycle at −80° C. The suspension was finally centrifuged at 105,000×g for 1 h at 4° C. Protein concentration was measured and samples aliquoted and stored at −80° C. until use.
The assay was run in Optiplate 96-wells black plates, in a total reaction volume of 200 μL. NAAA protein preparation (4.0 μg) was pre-incubated for 10 min with various concentrations of test compounds or vehicle control (5% DMSO) in 100 mM citrate/phosphate buffer (pH 4.5) containing 3.0 mM DTT, 0.1% Triton X-100, 0.05% BSA, 150 mM NaCl. N-(4-methyl-2-oxo-chromen-7-yl)-hexadecanamide was used as a substrate (5.0 μM) and the reaction carried over for 30 min at 37° C. The samples were then read in a Perkin Elmer Envision plate reader using an excitation wavelength of 360 nm and emission 460 nm. IC50 values were calculated by non-linear regression analysis of log [concentration]/inhibition curves using GraphPad Prism 5 (GraphPad Software Inc., CA—USA) applying a standard slope curve fitting.

[4] = compound 5 30 mg/kg p.o., dexamethasone 0.5 mg/kg i.p.

| SMILES | heat hyperalgesia (mice [1]) | paw edema (mice [1]) | TNF-alpha concentration in pulmonary exudate (mice [2]; [4]) | number of leukocytes (neutrophils) in the pulmonary exudate (FACS) (mice [2]; [4]) | myeloperoxidase (MPO) activity in lung tissue (mice [2]; compound 5 0.1-30 mg/kg p.o., dexamethasone 0.5 mg/kg i.p.) | increase of TNF-α in the pulmonary exudate (mice [2]; compound 5 0.1-30 mg/kg po) | LPS induced increase of IL-6, TNF-α and MIP-2/CXCL2 in tissue and BAL (mice [3]; 30 mg/kg po, at 6 hr) | neutrophil migration/infiltration into lung tissue (mice [3]; LPS, 30 mg/kg po, listed as Compound 5, 30 mg/kg) | neutrophil migration/infiltration into lung tissue (mice [3]; LPS, 30 mg/kg po, listed as compound 5, 30 mg/kg) | production of cytokines/chemokines in BAL and lung tissue (mice [3]; LPS, compound 5 30 mg/kg p.o., 30 min) | IC50 (Rat AC (r-AC); read-out: r-AC UPLC/MS assay IC50) [µM] | IC50 (r-NAAA) [nM] | inhibition at 10 µM (Rat AC (r-AC); read-out: r-AC UPLC/MS assay % inhib.) [%] | IC50 (human NAAA) [nM] |
| --- | --- | --- | --- | --- | --- | --- | --- | --- | --- | --- | --- | --- | --- | --- |
| O=C(N[C@H]1CNC1=O)OCCCCC1CCCCC1 [Example 5, 4-Cyclohexylbutyl-N-[(3S)-2-oxoazetidin-3-yl]-carbamate] | reduced; also recorded: markedly attenuated | reduced; also recorded: markedly attenuated | normalizes | normalized | normalizes; also recorded: dose-dependently normalized | dose-dependently normalized | significantly reduced | prevented | prevents | prevents | 12.5 | – | – | – |
| C[C@@H]1NC(=O)[C@H]1NC(=O)OCc1ccc(C2CCCCC2)cc1 [Example 74, (4-Cyclohexylphenyl)-methyl-N-[(2S,3S)-2-methyl-4-oxo-azetidin-3-yl]-carbamate] | – | – | – | – | – | – | – | – | – | – | – | 46 | 20 | 107 |
